Data on ten compounds can be found in article PMC6382696, “Drug Repurposing: The Anthelmintics Niclosamide and Nitazoxanide Are Potent TMEM16A Antagonists That Fully Bronchodilate Airways” (Frontiers in Pharmacology, 2019).

Where two headings read alike, the source gives them in different places.

One assay concerns the target T1, hTMEM16A (abc) (Homo sapiens, UniProt Q5XXA6, DEL476-501).
T1 sequence (Q5XXA6 with tags, fused parts or gaps isoform Q5XXA6-5 DEL539-564): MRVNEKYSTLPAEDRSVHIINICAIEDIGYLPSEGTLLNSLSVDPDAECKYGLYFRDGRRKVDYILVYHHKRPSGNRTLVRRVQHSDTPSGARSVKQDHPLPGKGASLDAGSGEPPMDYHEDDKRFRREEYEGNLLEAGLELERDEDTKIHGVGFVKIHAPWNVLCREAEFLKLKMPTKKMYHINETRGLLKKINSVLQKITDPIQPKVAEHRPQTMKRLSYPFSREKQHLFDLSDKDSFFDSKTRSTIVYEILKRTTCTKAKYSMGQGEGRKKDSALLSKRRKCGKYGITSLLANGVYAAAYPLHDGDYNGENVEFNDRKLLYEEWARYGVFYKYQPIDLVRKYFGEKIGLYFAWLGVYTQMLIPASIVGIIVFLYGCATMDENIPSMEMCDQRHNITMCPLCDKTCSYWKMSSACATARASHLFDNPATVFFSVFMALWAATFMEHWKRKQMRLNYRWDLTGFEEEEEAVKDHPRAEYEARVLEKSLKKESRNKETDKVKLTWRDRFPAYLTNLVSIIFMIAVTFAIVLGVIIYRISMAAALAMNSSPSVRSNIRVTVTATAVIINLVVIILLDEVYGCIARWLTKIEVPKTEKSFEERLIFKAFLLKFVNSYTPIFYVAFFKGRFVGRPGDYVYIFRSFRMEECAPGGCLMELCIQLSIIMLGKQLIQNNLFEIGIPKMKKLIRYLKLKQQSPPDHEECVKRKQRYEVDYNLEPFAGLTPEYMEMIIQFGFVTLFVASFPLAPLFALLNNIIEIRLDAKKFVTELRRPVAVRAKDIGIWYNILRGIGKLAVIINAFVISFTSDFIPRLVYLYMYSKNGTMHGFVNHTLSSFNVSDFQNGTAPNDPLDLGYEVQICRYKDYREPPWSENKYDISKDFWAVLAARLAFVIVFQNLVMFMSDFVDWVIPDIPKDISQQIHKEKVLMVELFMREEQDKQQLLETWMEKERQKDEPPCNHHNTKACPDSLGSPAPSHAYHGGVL
Nature of the assay: IonWorks Barracuda perforated patch clamp, ionomycin-activated TMEM16A inward current. The note with it: 10 μM ionomycin, Vhold −30 mV. It counts as cell-based. The source says: HEK293 cells stably expressing the human TMEM16A (abc) variant and CHO cells expressing the human CFTR gene were from ChanTest. The IonWorks Barracuda (IWB) procedure and data provided are from outsourced studies performed at ChanTest (Charles River Discovery, Cleveland, OH, United States) who were blinded as to the identity of the test articles or compounds provided by Amgen. As a control, benchmark inhibitors CFTRinh-172, GlyH-101 and benzbromarone were included amongst the blinded compounds submitted and performed as expected.
For IonWorks Barracuda studies on TMEM16A compounds, in brief eight test article concentrations were applied to naïve cells (n = 4, where n = the number of replicate wells/concentration) via steel needles of a 384-channel pipettor. Each application consists of addition of 20 μl of 2X concentrated test article solution to the total 40 μl final volume of the extracellular well of the Population Patch ClampTM (PPC) planar electrode. This addition is followed by mixing (one time) of the PPC well content. Duration of exposure to each test article concentration was at least 5 min. The electrophysiology procedure used: (a) Intracellular solution containing 50 mM CsCl, 90 mM CsF, 5 mM MgCl2, 1 mM EGTA, 10 mM HEPES, adjusted to pH 7.2 with CsOH; (b) Amphotericin B for patch perforation, where 30 mg/ml stock solution of amphotericin B in DMSO is added to internal solution to final concentration of 33.3 μg/ml; (c) Extracellular solution containing HEPES-buffered physiological saline (HBPS): 137 mM NaCl, 4 mM KCl, 1.8 mM CaCl2, 1 mM MgCl2, 10 mM HEPES, 10 mM glucose, adjusted to pH 7.4 with NaOH; and (d) Ionomycin stimulation of chloride currents where 10 μM ionomycin is added to all test solutions including vehicle and positive controls. […] After establishment of a whole-cell configuration via patch perforation (∼7–10 min exposure to amphotericin B), membrane currents were recorded using the on-board patch clamp amplifiers. […]
On the technique in general: The patch-clamp technique gives a direct electrical read-out from membranes.

In another assay the test system is mouse tracheal rings. As to the kind of experiment: Bronchodilation of mouse tracheal rings at differing levels of carbachol pre-contraction. The note with it: EC95 level of carbachol, normalized to theophylline. On the procedure: Standard procedures as listed above were used to prepare, mount and Wake-Up tracheal rings and the concentrations of carbachol providing EC25, EC50, EC75, or EC95 levels of contraction for each ring was determined as described above.

Another assay has as its system primary human ASM cells. As to the kind of experiment: Eact-induced calcium flux in primary human ASM cells. The format is cell-based. The note with it: Eact 10 M (so in the source), read-out: IC50 block of Eact calcium flux. The protocol:
1.1 Measuring antagonist effects on bronchial smooth muscle cell (BSMC) pro-contractile calcium flux.
Human BSMCs were obtained from Lonza, resuspended, cultured and serum starved for 24 hours as described for the histamine membrane potential assay. Compounds and dilutions were prepared in same manner, except they were serially diluted in Assay Buffer (2 mM CaCl2, 1 mM MgCl2, 4.5 mM KCl, 155 mM NaCl, 5 mM HEPES, 10 mM glucose, pH7.4) to 4X the final concentration. A Calcium Indicator Working Solution (10 ml) was prepared by adding 1ml BD PBX Signal Enhancer (Cat# 51 -9006254) and 10 µl of BD Calcium Indicator (BD Cat# 850000 resuspended in 100% DMSO) to 9 ml Assay Buffer. Following serum starvation of the BSMCs, culture media was aspirated off and 50µl of Calcium Indicator Working Solution was added t o each well of microtiter plate. Twenty-five microliters of the 4X serially diluted compounds were then added and cells were incubated with compounds for 30 minutes at room temperature. Twenty -five microliters of a 4X histamine or methacholine solution (where 1X reflects EC 80-EC100 concentration from earlier validation of aliquot of cells from same donor) was then added and fluorescence changes were measured by a FLIPR-Tetra or internal FlashFluor instrument. In some experiments the TMEM16A opener, Eact, was used in place of histamine or methacholine.
Background: Calcium flux is commonly read through the fluorescence of an indicator in the cells.

Assay [1] deals with Wnt/β-catenin transcription. The note with it: cited from earlier work.
The mark [2] stands for this setting: ref Mook et al. (2015), read-out: Mook et al. Wnt/β-catenin TopFlash (IC50).

As to `N#Cc1c(C(F)(F)F)cc(O)n2c1nc1ccccc12` [1PBC], the “effect on ionomycin-activated inward current at −100 mV, perforated patch clamp” value (from here on “effect”) on hTMEM16A (abc) was “robust inhibition”. With `CCc1oc2ccccc2c1C(=O)c1cc(Br)c(O)c(Br)c1` [Benzbromarone], the “relaxation of airway rings” value in the assay with mouse tracheal rings is on record as “roughly 100%”. Further, the IC50 with primary human ASM cells came out at 2 µM. Moreover, the “effect” value at hTMEM16A (abc) was “effective in blocking”.

On to `CC(C)(C)C1CCc2c(sc(NC(=O)c3ccco3)c2C(=O)O)C1` (stereo not shown) [CaCCinh-A01], for which the IC50 with primary human ASM cells amounted to 7 µM. `O=C(Nc1ccc([N+](=O)[O-])cc1)c1cc(Cl)ccc1O` [Cpd 2]: the IC50 in assay [1] (setting [2]) was 0.99 µM. On to `COc1cc([N+](=O)[O-])ccc1NC(=O)c1cc(Cl)c2ccccc2c1O` [Cpd 4], for which the “relaxation of airway rings” value with mouse tracheal rings is listed as “roughly 100%”. Take `O=C(Nc1ccc(Cl)cc1)c1cc(Cl)ccc1O` [Cpd 5]: the IC50 in assay [1] (setting [2]) was 1.3 µM. Regarding `Oc1ccc(Cl)cc1Cc1cc(Cl)ccc1O` [Dichlorophen], the IC50 in the assay on primary human ASM cells turned out to be 57 µM. Regarding `O=C(Nc1ccc([N+](=O)[O-])cc1Cl)c1cc(Cl)ccc1O` [Niclosamide], the “relaxation of airway rings” value in the assay on mouse tracheal rings was “roughly 100%”. For the same compound, the IC50 in assay [1] (TOPFlash reporter assay, ref Mook et al., 2015, read-out: IC50 inhibition of Wnt/β-catenin transcription) is 0.34 µM. In the case of `O=C(O)c1cccnc1Nc1cccc(C(F)(F)F)c1` [Niflumic Acid], the “effect” value at hTMEM16A (abc) was “inhibition (not stimulation)”.

As to `CCc1c(C)nc(SCC(=O)Nc2nc(-c3ccc(OC)cc3)cs2)[nH]c1=O` [T16Ainh-A01], the IC50 in the assay on primary human ASM cells amounted to 15 µM.
